Values belong to the compound of their own block, whether it stands above or below them.
How the values were obtained:
[1] = biological target: Insulin-like growth factor 1 receptor (Homo sapiens, UniProt P08069); experiment: Selectivity interaction (Millipore kinase profiler) EUB0000124b IGF1R; conditions: at 10 µM
[2] = biological target: Phosphatidylinositol 4,5-bisphosphate 3-kinase catalytic subunit gamma isoform (Homo sapiens) (UniProt P48736); experiment: Selectivity interaction (Kinase panel (Invitrogen)) EUB0000639a PIK3CG; conditions: at 200 nM
Phosphatidylinositol 4,5-bisphosphate 3-kinase catalytic subunit gamma isoform (Homo sapiens), sequence (P48736 whole entry, looked up, canonical isoform): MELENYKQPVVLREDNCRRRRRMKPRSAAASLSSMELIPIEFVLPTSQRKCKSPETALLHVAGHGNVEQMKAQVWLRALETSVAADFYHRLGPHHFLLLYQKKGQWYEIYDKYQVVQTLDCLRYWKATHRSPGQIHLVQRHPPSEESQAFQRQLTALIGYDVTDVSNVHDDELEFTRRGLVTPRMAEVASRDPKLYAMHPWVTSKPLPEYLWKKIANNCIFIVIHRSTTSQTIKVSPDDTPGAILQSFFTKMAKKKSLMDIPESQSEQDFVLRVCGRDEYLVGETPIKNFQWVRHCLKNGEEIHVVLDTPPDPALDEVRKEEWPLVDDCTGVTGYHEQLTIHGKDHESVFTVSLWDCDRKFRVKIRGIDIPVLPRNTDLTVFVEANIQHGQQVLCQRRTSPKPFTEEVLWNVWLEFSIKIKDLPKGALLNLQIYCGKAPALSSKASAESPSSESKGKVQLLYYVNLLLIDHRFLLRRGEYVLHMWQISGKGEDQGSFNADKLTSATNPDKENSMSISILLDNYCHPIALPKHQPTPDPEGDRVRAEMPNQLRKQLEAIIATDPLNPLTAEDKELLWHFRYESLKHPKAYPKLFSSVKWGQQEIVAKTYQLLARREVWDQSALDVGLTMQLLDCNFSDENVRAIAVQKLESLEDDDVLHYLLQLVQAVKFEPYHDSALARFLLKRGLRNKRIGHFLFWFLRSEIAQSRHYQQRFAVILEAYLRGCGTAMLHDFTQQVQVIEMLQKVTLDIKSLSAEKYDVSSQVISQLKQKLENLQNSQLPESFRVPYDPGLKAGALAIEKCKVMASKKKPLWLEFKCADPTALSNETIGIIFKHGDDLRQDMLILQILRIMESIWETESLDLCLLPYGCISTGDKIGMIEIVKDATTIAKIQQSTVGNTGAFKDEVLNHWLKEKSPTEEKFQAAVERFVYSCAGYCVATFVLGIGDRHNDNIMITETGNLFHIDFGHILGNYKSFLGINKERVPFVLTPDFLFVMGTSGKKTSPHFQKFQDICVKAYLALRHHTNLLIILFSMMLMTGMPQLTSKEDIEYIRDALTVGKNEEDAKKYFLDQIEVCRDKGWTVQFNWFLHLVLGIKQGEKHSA

[3] = biological target: Ribosomal protein S6 kinase alpha-3 (Homo sapiens, UniProt P51812); conditions: at 10 µM
[4] = biological target: Protein arginine N-methyltransferase 5 (Homo sapiens, UniProt O14744); experiment: Selectivity interaction (Methyltransferase screen (radiometric assays, panel of 8 PRMTs, 21 protein lysine methyltransferases, 3 DNA methyltransferases, and one RNA methyltransferase)) EUB0000271b PRMT5
Protein arginine N-methyltransferase 5, sequence (O14744 whole entry): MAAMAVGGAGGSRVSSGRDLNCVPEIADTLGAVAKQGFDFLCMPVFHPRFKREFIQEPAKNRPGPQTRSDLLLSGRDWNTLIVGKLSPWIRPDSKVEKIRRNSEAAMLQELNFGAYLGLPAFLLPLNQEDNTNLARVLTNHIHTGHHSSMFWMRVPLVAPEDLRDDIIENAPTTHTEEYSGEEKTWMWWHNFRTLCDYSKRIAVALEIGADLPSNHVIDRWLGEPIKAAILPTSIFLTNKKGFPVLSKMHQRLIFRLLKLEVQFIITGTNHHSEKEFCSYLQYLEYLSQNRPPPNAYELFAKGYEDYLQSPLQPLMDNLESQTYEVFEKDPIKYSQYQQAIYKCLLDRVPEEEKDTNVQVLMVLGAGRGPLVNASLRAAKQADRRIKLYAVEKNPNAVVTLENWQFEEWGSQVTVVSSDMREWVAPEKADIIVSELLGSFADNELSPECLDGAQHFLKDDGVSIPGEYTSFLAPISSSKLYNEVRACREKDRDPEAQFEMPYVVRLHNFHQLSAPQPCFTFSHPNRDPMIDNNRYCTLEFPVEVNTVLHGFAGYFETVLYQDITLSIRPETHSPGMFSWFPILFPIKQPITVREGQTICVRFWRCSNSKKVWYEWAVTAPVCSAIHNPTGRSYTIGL

[5] = biological target: Wee1-like protein kinase 2 (Homo sapiens) (UniProt P0C1S8); experiment: Selectivity interaction (KinomeScan (DiscoverX)) EUB0001619a WEE2; conditions: at 1 µM
Wee1-like protein kinase 2 (Homo sapiens), sequence (P0C1S8 whole entry, looked up): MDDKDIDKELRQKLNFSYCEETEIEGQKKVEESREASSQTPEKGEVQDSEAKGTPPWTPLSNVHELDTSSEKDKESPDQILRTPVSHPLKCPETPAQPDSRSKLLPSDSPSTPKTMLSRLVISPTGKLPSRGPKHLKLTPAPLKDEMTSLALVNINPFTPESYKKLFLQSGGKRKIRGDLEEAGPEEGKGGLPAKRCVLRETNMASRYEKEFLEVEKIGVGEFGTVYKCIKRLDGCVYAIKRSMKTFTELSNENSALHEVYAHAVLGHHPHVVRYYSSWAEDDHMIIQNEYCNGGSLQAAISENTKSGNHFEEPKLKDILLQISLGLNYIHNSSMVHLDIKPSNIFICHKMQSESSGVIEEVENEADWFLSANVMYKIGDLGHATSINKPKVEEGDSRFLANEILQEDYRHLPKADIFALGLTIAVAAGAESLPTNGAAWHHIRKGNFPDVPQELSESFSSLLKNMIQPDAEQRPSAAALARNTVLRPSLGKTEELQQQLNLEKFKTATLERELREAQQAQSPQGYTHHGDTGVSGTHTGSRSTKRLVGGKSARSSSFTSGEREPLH

[6] = biological target: T1, Mitogen-activated protein kinase kinase kinase 15 (Homo sapiens) (UniProt Q6ZN16); experiment: Selectivity interaction (KinomeScan (DiscoverX)) EUB0000607a MAP3K15; conditions: at 10 µM
T1 sequence (whole entry): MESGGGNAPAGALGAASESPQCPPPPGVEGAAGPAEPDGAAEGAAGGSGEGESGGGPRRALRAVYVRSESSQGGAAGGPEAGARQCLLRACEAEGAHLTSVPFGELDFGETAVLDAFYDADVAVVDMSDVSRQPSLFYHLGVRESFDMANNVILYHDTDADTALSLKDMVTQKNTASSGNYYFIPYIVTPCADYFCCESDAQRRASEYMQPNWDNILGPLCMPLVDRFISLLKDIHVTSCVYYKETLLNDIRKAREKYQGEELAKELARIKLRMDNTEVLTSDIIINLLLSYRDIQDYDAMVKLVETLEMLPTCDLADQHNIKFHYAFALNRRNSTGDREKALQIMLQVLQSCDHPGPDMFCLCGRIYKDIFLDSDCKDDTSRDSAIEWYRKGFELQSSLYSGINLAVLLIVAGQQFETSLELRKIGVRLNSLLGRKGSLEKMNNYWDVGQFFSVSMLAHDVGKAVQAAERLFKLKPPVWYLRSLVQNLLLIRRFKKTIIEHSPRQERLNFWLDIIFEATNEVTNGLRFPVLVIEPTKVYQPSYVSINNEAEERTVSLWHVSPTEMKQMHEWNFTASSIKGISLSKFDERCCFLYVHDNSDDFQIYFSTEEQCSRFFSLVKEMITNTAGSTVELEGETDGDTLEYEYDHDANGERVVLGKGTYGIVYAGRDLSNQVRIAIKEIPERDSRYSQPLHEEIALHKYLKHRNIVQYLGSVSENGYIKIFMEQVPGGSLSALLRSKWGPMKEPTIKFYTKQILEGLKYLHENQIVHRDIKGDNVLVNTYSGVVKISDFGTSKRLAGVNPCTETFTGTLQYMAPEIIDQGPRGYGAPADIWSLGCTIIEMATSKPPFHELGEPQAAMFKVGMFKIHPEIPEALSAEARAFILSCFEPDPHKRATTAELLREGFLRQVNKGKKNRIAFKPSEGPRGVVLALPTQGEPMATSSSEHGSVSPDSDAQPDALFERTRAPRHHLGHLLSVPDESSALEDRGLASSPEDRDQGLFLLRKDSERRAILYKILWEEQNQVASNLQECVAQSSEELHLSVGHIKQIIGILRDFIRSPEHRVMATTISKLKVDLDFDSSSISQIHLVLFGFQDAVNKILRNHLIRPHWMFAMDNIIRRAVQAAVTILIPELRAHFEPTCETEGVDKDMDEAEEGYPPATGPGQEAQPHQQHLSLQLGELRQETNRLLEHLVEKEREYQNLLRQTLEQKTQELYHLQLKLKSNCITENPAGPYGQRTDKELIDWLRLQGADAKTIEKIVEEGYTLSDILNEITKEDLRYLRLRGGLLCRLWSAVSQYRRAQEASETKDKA

[7] = biological target: Mitogen-activated protein kinase 1 (Homo sapiens, UniProt P28482); experiment: Selectivity interaction (SelectScreen profiling (Invitrogen)) EUB0000607a MAPK1; conditions: at 2 µM
Mitogen-activated protein kinase 1, sequence (P28482 whole entry): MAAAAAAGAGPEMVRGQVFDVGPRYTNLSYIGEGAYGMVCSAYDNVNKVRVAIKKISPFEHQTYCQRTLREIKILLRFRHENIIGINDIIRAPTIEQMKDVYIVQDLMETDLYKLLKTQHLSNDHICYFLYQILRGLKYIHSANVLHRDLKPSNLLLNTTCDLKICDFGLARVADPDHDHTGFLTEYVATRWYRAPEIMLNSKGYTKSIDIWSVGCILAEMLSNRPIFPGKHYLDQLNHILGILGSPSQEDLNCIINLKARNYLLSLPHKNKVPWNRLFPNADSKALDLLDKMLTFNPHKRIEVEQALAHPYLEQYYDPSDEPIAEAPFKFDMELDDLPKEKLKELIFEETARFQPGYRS

[8] = biological target: Histone-lysine N-methyltransferase SUV39H2 (Homo sapiens) (UniProt Q9H5I1); experiment: Selectivity interaction (Methyltransferase screen (Scintillation proximity assays)) EUB0000255b SUV39H2
Histone-lysine N-methyltransferase SUV39H2 (Homo sapiens), sequence (Q9H5I1 whole entry): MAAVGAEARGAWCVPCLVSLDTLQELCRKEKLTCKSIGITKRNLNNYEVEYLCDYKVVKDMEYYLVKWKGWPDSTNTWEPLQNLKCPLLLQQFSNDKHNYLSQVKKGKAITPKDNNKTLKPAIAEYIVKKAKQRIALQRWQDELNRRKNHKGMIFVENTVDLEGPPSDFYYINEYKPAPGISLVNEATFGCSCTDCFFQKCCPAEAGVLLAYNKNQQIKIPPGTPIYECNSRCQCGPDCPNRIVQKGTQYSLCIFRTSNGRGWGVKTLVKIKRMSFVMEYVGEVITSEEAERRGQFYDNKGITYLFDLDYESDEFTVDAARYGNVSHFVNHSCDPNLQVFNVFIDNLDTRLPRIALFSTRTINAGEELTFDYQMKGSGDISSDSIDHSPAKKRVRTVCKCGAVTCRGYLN

[9] = biological target: T2, Mitogen-activated protein kinase kinase kinase 3 (Homo sapiens) (UniProt Q99759); experiment: Selectivity interaction (KinomeScan (DiscoverX)) EUB0000666a MAP3K3; conditions: at 10 µM
T2 sequence (whole entry): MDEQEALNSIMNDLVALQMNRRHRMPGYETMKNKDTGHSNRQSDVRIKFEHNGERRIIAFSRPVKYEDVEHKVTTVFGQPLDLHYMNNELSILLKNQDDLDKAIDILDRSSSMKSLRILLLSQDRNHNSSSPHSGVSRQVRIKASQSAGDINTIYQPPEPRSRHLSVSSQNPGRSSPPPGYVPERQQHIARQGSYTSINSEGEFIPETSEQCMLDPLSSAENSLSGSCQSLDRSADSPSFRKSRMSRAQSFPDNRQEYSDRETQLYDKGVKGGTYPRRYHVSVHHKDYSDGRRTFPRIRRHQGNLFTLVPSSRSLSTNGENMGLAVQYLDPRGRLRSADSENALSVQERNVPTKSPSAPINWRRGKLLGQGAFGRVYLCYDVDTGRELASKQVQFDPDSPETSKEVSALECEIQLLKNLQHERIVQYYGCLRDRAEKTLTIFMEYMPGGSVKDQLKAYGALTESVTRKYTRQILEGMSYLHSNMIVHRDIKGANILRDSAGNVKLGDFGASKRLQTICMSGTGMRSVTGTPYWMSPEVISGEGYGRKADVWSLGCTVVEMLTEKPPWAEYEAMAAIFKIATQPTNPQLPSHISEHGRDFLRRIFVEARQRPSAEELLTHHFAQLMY

Insulin-like growth factor 1 receptor, sequence (P08069 31-736 limits assumed): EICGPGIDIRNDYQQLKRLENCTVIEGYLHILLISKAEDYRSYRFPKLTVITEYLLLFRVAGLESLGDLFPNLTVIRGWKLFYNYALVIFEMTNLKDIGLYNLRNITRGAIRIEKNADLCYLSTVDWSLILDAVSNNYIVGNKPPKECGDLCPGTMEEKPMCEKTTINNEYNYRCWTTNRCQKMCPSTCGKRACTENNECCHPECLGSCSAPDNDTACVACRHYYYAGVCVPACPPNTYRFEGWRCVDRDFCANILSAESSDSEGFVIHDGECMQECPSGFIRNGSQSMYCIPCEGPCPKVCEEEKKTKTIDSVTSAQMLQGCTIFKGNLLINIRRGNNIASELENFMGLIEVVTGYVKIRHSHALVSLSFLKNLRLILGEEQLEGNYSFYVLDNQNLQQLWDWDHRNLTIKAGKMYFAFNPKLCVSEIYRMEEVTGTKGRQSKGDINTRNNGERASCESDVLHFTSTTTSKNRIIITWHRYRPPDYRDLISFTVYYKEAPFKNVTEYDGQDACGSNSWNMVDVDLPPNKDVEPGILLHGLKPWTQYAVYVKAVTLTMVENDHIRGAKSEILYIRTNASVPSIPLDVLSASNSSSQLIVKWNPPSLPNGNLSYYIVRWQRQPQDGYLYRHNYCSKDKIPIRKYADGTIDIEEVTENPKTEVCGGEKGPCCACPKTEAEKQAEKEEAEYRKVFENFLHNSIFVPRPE
Insulin-like growth factor 1 receptor, sequence (P08069 741-1367 limits assumed): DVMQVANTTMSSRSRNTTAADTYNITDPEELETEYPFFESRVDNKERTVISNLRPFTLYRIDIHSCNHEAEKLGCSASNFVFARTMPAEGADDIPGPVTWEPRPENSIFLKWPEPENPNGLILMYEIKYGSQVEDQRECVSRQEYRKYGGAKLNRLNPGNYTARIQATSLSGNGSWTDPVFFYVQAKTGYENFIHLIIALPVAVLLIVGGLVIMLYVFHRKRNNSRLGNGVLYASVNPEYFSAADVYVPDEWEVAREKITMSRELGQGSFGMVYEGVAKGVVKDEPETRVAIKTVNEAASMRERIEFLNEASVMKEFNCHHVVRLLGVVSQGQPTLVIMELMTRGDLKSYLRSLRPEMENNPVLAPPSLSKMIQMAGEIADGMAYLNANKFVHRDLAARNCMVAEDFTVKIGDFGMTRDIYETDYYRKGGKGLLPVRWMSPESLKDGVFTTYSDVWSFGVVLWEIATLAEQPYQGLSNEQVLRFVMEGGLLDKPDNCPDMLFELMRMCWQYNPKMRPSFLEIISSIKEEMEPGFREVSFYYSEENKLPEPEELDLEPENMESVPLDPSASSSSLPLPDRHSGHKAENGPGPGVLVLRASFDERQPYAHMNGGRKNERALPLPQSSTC

% of control [1]: 95%
Compound: CC(=O)Nc1cccc(-n2c(=O)n(C3CC3)c(=O)c3c(Nc4ccc(I)cc4F)n(C)c(=O)c(C)c32)c1

% of inhibition [2]: 6.49%
Compound: CC[C@@H]1[C@H](F)C(=O)N[C@@H]1COc1nccc2cc(C(N)=O)c(OC)cc12 [ZIMLOVISERTIB]

% of control [3]: 100%
Compound: CCN(CC)CCCCNc1ncc2cc(-c3cc(OC)cc(OC)c3)c(NC(=O)NC(C)(C)C)nc2n1

Compound: Cc1cc(C)cc([C@@H]2c3cc(C)ccc3NC(=O)CN2C(=O)c2ccc(Br)s2)c1
% of activity ([4]; at 1 µM): 102%
% of activity ([4]; at 10 µM): 100%

Compound: N#Cc1cccc(-c2c[nH]c3ncnc(N4CCOCC4)c23)c1
% of control [5]: 96%

Compound: CNC(=O)Nc1ccc(-c2nc(N3CC4CCC(C3)O4)c3cnn(C4CCC5(CC4)OCCO5)c3n2)cc1
% of control [6]: 100%
% of inhibition [7]: 0%

Compound: COCCN1CCC(c2cc(CN(C)C(=O)c3cccc(Oc4ccccc4)c3)ccn2)CC1
% activity ([8]; at 1 µM): > 95%
% activity ([8]; at 10 µM): > 90%

Compound: O=C(NOC[C@H](O)CO)c1ccc(F)c(F)c1Nc1ccc(I)cc1F
% of control [9]: 98%

— ChEMBL document CHEMBL5465560, “Selectivity Literature for EUbOPEN Chemogenomic Library” (2024)
